Measured values as given in patent US9932340B2, “Substituted indoles” (AbbVie Inc., priority 2014, dated 2018).

molecular target: SUV420H1 enzyme (Homo sapiens, UniProt Q4FZB7); experiment: TR-FRET SAH SUV420H1 enzyme inhibition assay; type: biochemical; details: Histone Peptide H4(8-30)me1 and SAM, overnight at room temp, TR-FRET detection of SAH, read-out: TR-FRET SAH_SUV420H1 IC50
Outline: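 SUV420H1 (90 nM) preincubated 30 min with compound (3-fold dilutions, 50 to 0.00075 μM), then H4(8-30)me1 peptide 5 nM and SAM 4 nM added, overnight at room temp. SAH product detected by TR-FRET with Tb anti-SAH antibody and Oregon Green-SAH in RIPA buffer, 4 h; IC50 from Hill fit, asymptotes fixed 0-100%.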

SUV420H1 enzyme, sequence (Q4FZB7 whole entry): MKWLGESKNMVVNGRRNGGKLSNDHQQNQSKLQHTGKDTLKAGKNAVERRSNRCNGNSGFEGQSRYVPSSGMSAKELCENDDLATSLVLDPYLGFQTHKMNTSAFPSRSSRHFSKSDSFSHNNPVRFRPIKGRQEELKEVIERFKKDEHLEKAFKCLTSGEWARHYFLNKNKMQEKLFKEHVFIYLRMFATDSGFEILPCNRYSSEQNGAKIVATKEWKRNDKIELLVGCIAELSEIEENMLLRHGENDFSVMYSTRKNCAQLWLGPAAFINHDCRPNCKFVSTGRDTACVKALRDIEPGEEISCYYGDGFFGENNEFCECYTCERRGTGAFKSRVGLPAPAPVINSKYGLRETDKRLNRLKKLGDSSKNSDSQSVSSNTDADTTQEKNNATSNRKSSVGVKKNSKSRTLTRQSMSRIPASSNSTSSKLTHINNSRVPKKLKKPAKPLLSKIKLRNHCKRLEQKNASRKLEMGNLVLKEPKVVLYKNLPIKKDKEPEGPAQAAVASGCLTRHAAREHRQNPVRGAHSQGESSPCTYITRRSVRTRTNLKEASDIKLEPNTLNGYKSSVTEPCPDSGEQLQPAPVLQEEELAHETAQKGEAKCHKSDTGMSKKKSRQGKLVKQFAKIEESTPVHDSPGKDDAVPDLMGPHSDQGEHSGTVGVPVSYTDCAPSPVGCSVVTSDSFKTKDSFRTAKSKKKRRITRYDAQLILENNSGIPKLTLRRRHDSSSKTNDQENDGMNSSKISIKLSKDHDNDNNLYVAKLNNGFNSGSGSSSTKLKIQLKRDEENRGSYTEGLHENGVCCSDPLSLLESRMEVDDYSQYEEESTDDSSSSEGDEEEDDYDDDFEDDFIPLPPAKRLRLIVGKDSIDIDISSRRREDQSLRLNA

| IC50 [µM] | SMILES |
| --- | --- |
| 0.911 | CS(=O)(=O)c1ccc(C(=O)NCc2cc3cc(Cl)cc(Cn4cnc5c(N)ncnc54)c3[nH]2)c(Cl)c1 [Example 266, N-({7-[(6-amino-9H-purin-9-yl)methyl]-5-chloro-1H-indol-2-yl}methyl)-2-chloro-4-(methylsulfonyl)benzamide] |
| 3.75 | N#Cc1ccc(F)c(CNCc2cc3cc(Cl)cc(Cn4cnc5c(N)ncnc54)c3[nH]2)c1 [Example 270, 3-{[({7-[(6-amino-9H-purin-9-yl)methyl]-5-chloro-1H-indol-2-yl}methyl)amino]methyl}-4-fluorobenzonitrile] |
| 2.98 | Cc1ccc(N)cc1C(=O)NCc1cc2cc(Cl)cc(Cn3cnc4c(N)ncnc43)c2[nH]1 [Example 271, 5-amino-N-({7-[(6-amino-9H-purin-9-yl)methyl]-5-chloro-1H-indol-2-yl}methyl)-2-methylbenzamide] |
| 0.378 | N#Cc1ccc(C(=O)NCc2cc3cc(Cl)cc(Cn4cnc5c(N)ncnc54)c3[nH]2)cc1 [Example 272, N-({7-[(6-amino-9H-purin-9-yl)methyl]-5-chloro-1H-indol-2-yl}methyl)-4-cyanobenzamide] |
| 1.5 | N#Cc1cccc(C(=O)NCc2cc3cc(Cl)cc(Cn4cnc5c(N)ncnc54)c3[nH]2)c1 [Example 273, N-({7-[(6-amino-9H-purin-9-yl)methyl]-5-chloro-1H-indol-2-yl}methyl)-3-cyanobenzamide] |
| 11.3 | N#Cc1ccccc1C(=O)NCc1cc2cc(Cl)cc(Cn3cnc4c(N)ncnc43)c2[nH]1 [Example 274, N-({7-[(6-amino-9H-purin-9-yl)methyl]-5-chloro-1H-indol-2-yl}methyl)-2-cyanobenzamide] |
| 0.039 | N#Cc1ccc(C(=O)NCc2cc3cc(Cl)cc(Cn4cnc5c(N)ncnc54)c3[nH]2)c(Cl)c1 [Example 276, N-({7-[(6-amino-9H-purin-9-yl)methyl]-5-chloro-1H-indol-2-yl}methyl)-2-chloro-4-cyanobenzamide] |
| 0.0351 | N#Cc1ccc(C(=O)NCc2cc3cc(C4=CCNCC4)cc(Cn4cnc5c(N)ncnc54)c3[nH]2)c(Cl)c1 [Example 277, N-({7-[(6-amino-9H-purin-9-yl)methyl]-5-(1,2,3,6-tetrahydropyridin-4-yl)-1H-indol-2-yl}methyl)-2-chloro-4-cyanobenzamide] |
| 0.0674 | N#Cc1ccc(C(=O)NCc2cc3cc(C4=CCC(F)(F)CC4)cc(Cn4cnc5c(N)ncnc54)c3[nH]2)c(Cl)c1 [Example 278, N-({7-[(6-amino-9H-purin-9-yl)methyl]-5-(4,4-difluorocyclohex-1-en-1-yl)-1H-indol-2-yl}methyl)-2-chloro-4-cyanobenzamide] |
| 0.0493 | CC(=O)N1CC=C(c2cc(Cn3cnc4c(N)ncnc43)c3[nH]c(CNC(=O)c4ccc(C#N)cc4Cl)cc3c2)CC1 [Example 279, N-({5-(1-acetyl-1,2,3,6-tetrahydropyridin-4-yl)-7-[(6-amino-9H-purin-9-yl)methyl]-1H-indol-2-yl}methyl)-2-chloro-4-cyanobenzamide] |
| 0.0419 | CC(=O)N1CCC=C(c2cc(Cn3cnc4c(N)ncnc43)c3[nH]c(CNC(=O)c4ccc(C#N)cc4Cl)cc3c2)C1 [Example 280] |
| 0.141 | CC(=O)N1CCC(c2cc(Cn3cnc4c(N)ncnc43)c3[nH]c(CNC(=O)c4ccc(C#N)cc4Cl)cc3c2)CC1 [Example 281, N-({5-(1-acetylpiperidin-4-yl)-7-[(6-amino-9H-purin-9-yl)methyl]-1H-indol-2-yl}methyl)-2-chloro-4-cyanobenzamide] |
| 0.0723 | N#Cc1ccc(C(=O)NCc2cc3c(Cl)ccc(Cn4cnc5c(N)ncnc54)c3[nH]2)c(Cl)c1 [Example 282, N-({7-[(6-amino-9H-purin-9-yl)methyl]-4-chloro-1H-indol-2-yl}methyl)-2-chloro-4-cyanobenzamide] |
| 0.0526 | N#Cc1cc(Cl)c(C(=O)NCc2cc3cc(Cl)cc(Cn4cnc5c(N)ncnc54)c3[nH]2)c(Cl)c1 [Example 283, N-({7-[(6-amino-9H-purin-9-yl)methyl]-5-chloro-1H-indol-2-yl}methyl)-2,6-dichloro-4-cyanobenzamide] |
| 0.0908 | N#Cc1ccc(C(=O)NCc2cc3cc(Cl)cc(Cn4cnc5c(N)ncnc54)c3[nH]2)c(F)c1 [Example 284, N-({7-[(6-amino-9H-purin-9-yl)methyl]-5-chloro-1H-indol-2-yl}methyl)-4-cyano-2-fluorobenzamide] |
| 0.0579 | N#Cc1ccc(C(=O)NCc2cc3cc(C4=CCOCC4)cc(Cn4cnc5c(N)ncnc54)c3[nH]2)c(F)c1 [Example 285, N-({7-[(6-amino-9H-purin-9-yl)methyl]-5-(3,6-dihydro-2H-pyran-4-yl)-1H-indol-2-yl}methyl)-4-cyano-2-fluorobenzamide] |
| 0.0411 | N#Cc1ccc(C(=O)NCc2cc3cc(C4=CCNCC4)cc(Cn4cnc5c(N)ncnc54)c3[nH]2)c(F)c1 [Example 286, N-({7-[(6-amino-9H-purin-9-yl)methyl]-5-(1,2,3,6-tetrahydropyridin-4-yl)-1H-indol-2-yl}methyl)-4-cyano-2-fluorobenzamide] |
| 0.0878 | N#Cc1ccc(C(=O)NCc2cc3cc(C4=CCC(F)(F)CC4)cc(Cn4cnc5c(N)ncnc54)c3[nH]2)c(F)c1 [Example 287, N-({7-[(6-amino-9H-purin-9-yl)methyl]-5-(4,4-difluorocyclohex-1-en-1-yl)-1H-indol-2-yl}methyl)-4-cyano-2-fluorobenzamide] |
| 0.0431 | CC(=O)N1CC=C(c2cc(Cn3cnc4c(N)ncnc43)c3[nH]c(CNC(=O)c4ccc(C#N)cc4F)cc3c2)CC1 [Example 288, N-({5-(1-acetyl-1,2,3,6-tetrahydropyridin-4-yl)-7-[(6-amino-9H-purin-9-yl)methyl]-1H-indol-2-yl}methyl)-4-cyano-2-fluorobenzamide] |
| 0.0613 | CC(C)(C)OC(=O)N1CC=C(c2cc(Cn3cnc4c(N)ncnc43)c3[nH]c(CNC(=O)c4ccc(C#N)cc4F)cc3c2)CC1 [Example 289, tert-butyl 4-(7-[(6-amino-9H-purin-9-yl)methyl]-2-{[(4-cyano-2-fluorobenzoyl)amino]methyl}-1H-indol-5-yl)-3,6-dihydropyridine-1(2H)-carboxylate] |

The remaining lines, values behind:

| SMILES | IC50 [µM] |
| --- | --- |
| N#Cc1ccc(CNCc2cc3cc(Cl)cc(Cn4cnc5c(N)ncnc54)c3[nH]2)cc1 [Example 267, 4-{[({7-[(6-amino-9H-purin-9-yl)methyl]-5-chloro-1H-indol-2-yl}methyl)amino]methyl}benzonitrile] | 3.43 |
| N#Cc1cccc(CNCc2cc3cc(Cl)cc(Cn4cnc5c(N)ncnc54)c3[nH]2)c1 [Example 268, 3-{[({7-[(6-amino-9H-purin-9-yl)methyl]-5-chloro-1H-indol-2-yl}methyl)amino]methyl}benzonitrile] | 4.64 |
| N#Cc1ccccc1CNCc1cc2cc(Cl)cc(Cn3cnc4c(N)ncnc43)c2[nH]1 [Example 269, 2-{[({7-[(6-amino-9H-purin-9-yl)methyl]-5-chloro-1H-indol-2-yl}methyl)amino]methyl}benzonitrile] | 5.6 |
| CNc1ccccc1C(=O)NCc1cc2cc(Cl)cc(Cn3cnc4c(N)ncnc43)c2[nH]1 [Example 275, N-({7-[(6-amino-9H-purin-9-yl)methyl]-5-chloro-1H-indol-2-yl}methyl)-2-(methylamino)benzamide] | 13.2 |
| Cc1cccc(C)c1CNCc1cc2cc(Cl)cc(Cn3cnc4c(N)ncnc43)c2[nH]1 [Example 290, 9-[(5-chloro-2-{[(2,6-dimethylbenzyl)amino]methyl}-1H-indol-7-yl)methyl]-9H-purin-6-amine] | 2.8 |
| Nc1ncnc2c1ncn2Cc1cc(Cl)cc2cc(CNC(=O)CCc3ccccc3)[nH]c12 [Example 291, N-({7-[(6-amino-9H-purin-9-yl)methyl]-5-chloro-1H-indol-2-yl}methyl)-3-phenylpropanamide] | 12.9 |
| Cc1ccc(CC(=O)NCc2cc3cc(Cl)cc(Cn4cnc5c(N)ncnc54)c3[nH]2)cc1 [Example 292, N-({7-[(6-amino-9H-purin-9-yl)methyl]-5-chloro-1H-indol-2-yl}methyl)-2-(4-methylphenyl)acetamide] | 32.2 |
| Cc1cccc(CC(=O)NCc2cc3cc(Cl)cc(Cn4cnc5c(N)ncnc54)c3[nH]2)c1 [Example 293, N-({7-[(6-amino-9H-purin-9-yl)methyl]-5-chloro-1H-indol-2-yl}methyl)-2-(3-methylphenyl)acetamide] | 20.5 |
| Cc1ccccc1CC(=O)NCc1cc2cc(Cl)cc(Cn3cnc4c(N)ncnc43)c2[nH]1 [Example 294, N-({7-[(6-amino-9H-purin-9-yl)methyl]-5-chloro-1H-indol-2-yl}methyl)-2-(2-methylphenyl)acetamide] | > 50 |
| Cc1cccc(C)c1C(=O)NCc1cc2cc(Cl)cc(Cn3cnc4c(N)ncnc43)c2[nH]1 [Example 295, N-({7-[(6-amino-9H-purin-9-yl)methyl]-5-chloro-1H-indol-2-yl}methyl)-2,6-dimethylbenzamide] | 0.607 |
| CCc1ccccc1C(=O)NCc1cc2cc(Cl)cc(Cn3cnc4c(N)ncnc43)c2[nH]1 [Example 296, N-({7-[(6-amino-9H-purin-9-yl)methyl]-5-chloro-1H-indol-2-yl}methyl)-2-ethylbenzamide] | 0.623 |
| COc1ccc(CC(=O)NCc2cc3cc(Cl)cc(Cn4cnc5c(N)ncnc54)c3[nH]2)cc1 [Example 297, N-({7-[(6-amino-9H-purin-9-yl)methyl]-5-chloro-1H-indol-2-yl}methyl)-2-(4-methoxyphenyl)acetamide] | 6.04 |
| COc1ccccc1CC(=O)NCc1cc2cc(Cl)cc(Cn3cnc4c(N)ncnc43)c2[nH]1 [Example 298, N-({7-[(6-amino-9H-purin-9-yl)methyl]-5-chloro-1H-indol-2-yl}methyl)-2-(2-methoxyphenyl)acetamide] | 5.98 |
| COc1cccc(C)c1C(=O)NCc1cc2cc(Cl)cc(Cn3cnc4c(N)ncnc43)c2[nH]1 [Example 299, N-({7-[(6-amino-9H-purin-9-yl)methyl]-5-chloro-1H-indol-2-yl}methyl)-2-methoxy-6-methylbenzamide] | 1.84 |
